Results from ChEMBL document CHEMBL2150873, “Identification of imidazo-pyrrolopyridines as novel and potent JAK1 inhibitors” (J Med Chem, 2012).

Assays:
[1] = Lipophilicity, log D of the compound after 1 hr by LC/MS/MS analysis at pH 7.2; type: physicochemical; details: buffer
in vitro = details: human, liver microsomes, t1/2
[2] = Apparent permeability from apical to basal side of MDCK cells at 10 uM; type: ADME, cell-based, Canis lupus familiaris; details: dog
[3] = Half life in Sprague-Dawley rat hepatocytes at 1 uM by LC/MS/MS analysis; type: ADME, cell-based, Liver, Hepatocyte
[4] = Dose normalized clearance in Sprague-Dawley rat at 1 mg/kg, iv; type: ADME, organism-based; parameters: dose 1 mg/kg, route intravenous; details: in vivo, read-out: Dose normalized clearance
Rattus norvegicus [5] = assay: Dose normalized AUC in Sprague-Dawley rat at 5 mg/kg, po; type: ADME, organism-based; parameters: dose 5 mg/kg, route oral; details: in vivo
Rattus norvegicus [6] = assay: Dose normalized Cmax in Sprague-Dawley rat at 5 mg/kg, po; type: ADME, organism-based; parameters: dose 5 mg/kg, route oral; details: in vivo
[7] = Dose normalized volume of distribution at steady state in Sprague-Dawley rat at 1 mg/kg, iv and 5 mg/kg, po; type: ADME, organism-based; details: in vivo, read-out: Vdss/dose
[8] = Dose normalized oral bioavailability in Sprague-Dawley rat at 5 mg/kg; type: ADME, organism-based; details: in vivo, read-out: F/dose
Liver microsomes = details: human

For `COC(=O)N[C@H]1CC[C@H](n2cnc3cnc4[nH]ccc4c32)CC1`, the logD at 1 h [1] was 1.9 and the half-life (in vitro) was > 10 h.
Compound `CC(C)(C)OC(=O)N[C@@H]1CC[C@@H](n2cnc3cnc4[nH]ccc4c32)C1` has a logD at 1 h [1] of 2.99, a Papp A→B at 10 µM [2] of 112 nm/s and a half-life at 1 µM [3] of 2.2 h. For the same compound, the clearance [4] was 8.4 L/h/kg, the AUC/dose (Rattus norvegicus [5]) was 1.3 µM·h and the Cmax/dose (Rattus norvegicus [6]) was 1.1 µM. It also gave a Vd [7] of 2.53 L/kg, a bioavailability [8] of 73% and a t1/2 (Liver microsomes) of 5.6 h.
For `N#CCC(=O)N1CCC[C@@H](n2cnc3cnc4[nH]ccc4c32)C1`, the logD at 1 h [1] was 0.39, the Papp A→B at 10 µM [2] was 3 nm/s and the half-life at 1 µM [3] was > 10 h. It also gave a clearance [4] of 5.1 L/h/kg, an AUC/dose (Rattus norvegicus [5]) of 0.3 µM·h and a Cmax/dose (Rattus norvegicus [6]) of 0.05 µM. The Vd [7] was 1.87 L/kg, the bioavailability [8] was 5% and the half-life (in vitro) was 1.4 h.
Compound `c1ccc(CN2CCC(n3cnc4cnc5[nH]ccc5c43)CC2)cc1` has a logD at 1 h [1] of 2.9, a Papp A→B at 10 µM [2] of 323 nm/s and a half-life at 1 µM [3] of 0.5 h. For the same compound, the clearance [4] was 10.2 L/h/kg, the Cmax/dose (Rattus norvegicus [6]) was 0.04 µM and the Vd [7] was 6.39 L/kg. For the same compound, the bioavailability [8] was < 1% and the half-life (in vitro) was 0.8 h.
`c1ncc(CN2CCC(n3cnc4cnc5[nH]ccc5c43)CC2)cn1` gave a half-life (in vitro) of 4 h.
With `N#CCC(=O)N1CCC(n2cnc3cnc4[nH]ccc4c32)CC1` the half-life (in vitro) was 2 h.
Compound `O=C(c1ccccc1)N1CCC(n2cnc3cnc4[nH]ccc4c32)CC1` has a half-life (in vitro) of 1.4 h.
Compound `CC(C)CC(=O)N1CCC(n2cnc3cnc4[nH]ccc4c32)CC1` has a half-life (in vitro) of 0.5 h.
With `O=S(=O)(c1ccccc1)N1CCC(n2cnc3cnc4[nH]ccc4c32)CC1` the half-life (in vitro) was 0.7 h.
For `CS(=O)(=O)N1CCC(n2cnc3cnc4[nH]ccc4c32)CC1`, the logD at 1 h [1] was 1.04, the Papp A→B at 10 µM [2] was 12 nm/s and the half-life at 1 µM [3] was > 10 h. The clearance [4] was 2.7 L/h/kg, the AUC/dose (Rattus norvegicus [5]) was 2.3 µM·h and the Cmax/dose (Rattus norvegicus [6]) was 2.9 µM. It also gave a Vd [7] of 1.46 L/kg, a bioavailability [8] of 36% and a half-life (in vitro) of 2.2 h.
`CCN1CCC(n2cnc3cnc4[nH]ccc4c32)CC1` showed a half-life (in vitro) of 2.5 h.
For `FC(F)(F)CN1CCC(n2cnc3cnc4[nH]ccc4c32)CC1`, the half-life (in vitro) was 3.8 h.
With `N#CCCN1CCC(n2cnc3cnc4[nH]ccc4c32)CC1` the logD at 1 h [1] was 1.72, the Papp A→B at 10 µM [2] was 82 nm/s and the half-life at 1 µM [3] was > 10 h. It also gave a clearance [4] of 5.76 L/h/kg, an AUC/dose (Rattus norvegicus [5]) of 1.6 µM·h and a Cmax/dose (Rattus norvegicus [6]) of 1.8 µM. It also gave a Vd [7] of 2.37 L/kg, a bioavailability [8] of 48% and a half-life (in vitro) of 7.5 h.
For `CN(C)CC(=O)N1CCC(n2cnc3cnc4[nH]ccc4c32)CC1`, the half-life (in vitro) was 1.5 h.
In the case of `CN1CCC[C@@H]1C(=O)N1CCC(n2cnc3cnc4[nH]ccc4c32)CC1`, the half-life (in vitro) is reported as 2.8 h.
`CN1CCC[C@H]1C(=O)N1CCC(n2cnc3cnc4[nH]ccc4c32)CC1` showed a half-life (in vitro) of 4.7 h.
Compound `CC(C)N1CCC[C@H]1C(=O)N1CCC(n2cnc3cnc4[nH]ccc4c32)CC1` has a half-life (in vitro) of 1.3 h.
For `CN1CCCC[C@H]1C(=O)N1CCC(n2cnc3cnc4[nH]ccc4c32)CC1`, the half-life (in vitro) was 3.5 h.
For `CC1(n2cnc3cnc4[nH]ccc4c32)CCNCC1`, the half-life (in vitro) was > 10 h.
In the case of `CC1(n2cnc3cnc4[nH]ccc4c32)CCN(Cc2cncnc2)CC1`, the half-life (in vitro) is reported as 1.6 h.
With `CC1(n2cnc3cnc4[nH]ccc4c32)CCN(S(C)(=O)=O)CC1` the logD at 1 h [1] was 1.14, the Papp A→B at 10 µM [2] was 25 nm/s and the half-life at 1 µM [3] was > 10 h. It also gave a clearance [4] of 4.92 L/h/kg, an AUC/dose (Rattus norvegicus [5]) of 2.3 µM·h and a Cmax/dose (Rattus norvegicus [6]) of 0.8 µM. The Vd [7] was 2.72 L/kg, the bioavailability [8] was 74% and the half-life (in vitro) was > 10 h.
Compound `CC1(n2cnc3cnc4[nH]ccc4c32)CCN(CC(F)(F)F)CC1` has a half-life (in vitro) of 1.6 h.
`CC1(n2cnc3cnc4[nH]ccc4c32)CCN(CCC#N)CC1` showed a half-life (in vitro) of 2.3 h.
With `CC(C)(C)OC(=O)N[C@H]1CC[C@H](n2cnc3cnc4[nH]ccc4c32)CC1` the logD at 1 h [1] was 3.2 and the half-life (in vitro) was 1.5 h.
For `N[C@H]1CC[C@H](n2cnc3cnc4[nH]ccc4c32)CC1`, the logD at 1 h [1] was -0.44, the Papp A→B at 10 µM [2] was 2 nm/s and the half-life at 1 µM [3] was > 10 h. For the same compound, the clearance [4] was 3.9 L/h/kg, the AUC/dose (Rattus norvegicus [5]) was 0.22 µM·h and the Cmax/dose (Rattus norvegicus [6]) was 0.02 µM. The Vd [7] was 13.9 L/kg, the bioavailability [8] was < 1% and the half-life (in vitro) was 3.7 h.
`N[C@H]1CC[C@@H](n2cnc3cnc4[nH]ccc4c32)CC1` showed a half-life (in vitro) of 5.5 h.
Compound `c1cc2c(ncc3ncn([C@H]4CC[C@H](N5CCOCC5)CC4)c32)[nH]1` has a half-life (in vitro) of 6.8 h.
In the case of `c1cc2c(ncc3ncn([C@H]4CC[C@@H](N5CCOCC5)CC4)c32)[nH]1`, the half-life (in vitro) is reported as 3.7 h.
Compound `CC(C)C(=O)N[C@H]1CC[C@H](n2cnc3cnc4[nH]ccc4c32)CC1` has a half-life (in vitro) of 2.7 h.
With `c1cc2c(ncc3ncn([C@H]4CC[C@H](NCC5CC5)CC4)c32)[nH]1` the half-life (in vitro) was 4.7 h.
`N#CCCN[C@H]1CC[C@H](n2cnc3cnc4[nH]ccc4c32)CC1` gave a logD at 1 h [1] of 0.97, a Papp A→B at 10 µM [2] of 15 nm/s and a half-life at 1 µM [3] of 9.8 h. It also gave a clearance [4] of 7.2 L/h/kg, an AUC/dose (Rattus norvegicus [5]) of 0.7 µM·h and a Cmax/dose (Rattus norvegicus [6]) of 0.6 µM. The Vd [7] was 3.96 L/kg, the bioavailability [8] was 28% and the half-life (in vitro) was 5 h.
`N#Cc1cccc(CN[C@H]2CC[C@H](n3cnc4cnc5[nH]ccc5c43)CC2)c1` gave a half-life (in vitro) of 0.8 h.
With `CS(=O)(=O)N[C@H]1CC[C@H](n2cnc3cnc4[nH]ccc4c32)CC1` the half-life (in vitro) was 1.8 h.
With `COC(=O)N(C)[C@H]1CC[C@H](n2cnc3cnc4[nH]ccc4c32)CC1` the half-life (in vitro) was > 10 h.
Work on `CC(C)(C)OC(=O)N[C@@H]1CC[C@@H](n2cnc3cnc4[nH]ccc4c32)C1` (racemic) yielded a half-life (in vitro) of 5.5 h.
For `COC(=O)N[C@@H]1CC[C@@H](n2cnc3cnc4[nH]ccc4c32)C1` (racemic), the logD at 1 h [1] was 1.2 and the half-life (in vitro) was 5.8 h.
Work on `CC(C)(C)OC(=O)N[C@H]1CC[C@@H](n2cnc3cnc4[nH]ccc4c32)C1` (racemic) yielded a half-life (in vitro) of 1.8 h.
